Molecular target: T1, Solute carrier family 22 member 6 (Homo sapiens, UniProt Q4U2R8)
T1 sequence (Q4U2R8 whole entry): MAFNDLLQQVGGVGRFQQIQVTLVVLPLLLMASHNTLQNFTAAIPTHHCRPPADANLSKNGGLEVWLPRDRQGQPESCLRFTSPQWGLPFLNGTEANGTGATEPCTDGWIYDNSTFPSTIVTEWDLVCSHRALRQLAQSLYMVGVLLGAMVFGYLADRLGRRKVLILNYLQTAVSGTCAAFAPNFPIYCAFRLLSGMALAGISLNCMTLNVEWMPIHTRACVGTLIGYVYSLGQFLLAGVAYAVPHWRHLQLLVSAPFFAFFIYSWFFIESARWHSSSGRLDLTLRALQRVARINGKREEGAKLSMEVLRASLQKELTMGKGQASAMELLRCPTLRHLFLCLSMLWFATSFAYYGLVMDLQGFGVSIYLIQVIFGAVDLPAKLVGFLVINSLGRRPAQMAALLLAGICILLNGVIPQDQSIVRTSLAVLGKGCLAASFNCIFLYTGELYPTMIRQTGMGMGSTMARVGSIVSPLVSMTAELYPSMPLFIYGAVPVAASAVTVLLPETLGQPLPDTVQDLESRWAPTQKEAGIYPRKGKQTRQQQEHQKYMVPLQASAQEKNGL
Assay: TP_TRANSPORTER: uptake in OAT1-expressing CHO cells
Assay type: functional, cell-based
Conditions: hamster

Activity: is not a substrate [-]
Structure (SMILES): CC(C(=O)O)c1cccc(C(=O)c2ccccc2)c1 (stereo unspecified) [KETOPROFEN]

From ChEMBL document CHEMBL2074465, “Nonsteroidal anti-inflammatory drugs efficiently reduce the transport and cytotoxicity of adefovir mediated by the human renal organic anion transporter 1” (J Pharmacol Exp Ther, 2000)
